Experimental data: PMC9241644, “Evaluation of Novel Quorum Sensing Inhibitors Targeting Auto-Inducer 2 (AI-2) for the Control of Avian Pathogenic Escherichia coli Infections in Chickens” (Microbiology Spectrum, 2022)

Tested on: Rif^R APEC O78
Test: Efficacy of QSIs in APEC-infected chickens (oral gavage pilot)
Format: in vivo, Escherichia coli
Settings: Table S1, oral gavage pilot
Protocol: The chicken experiment was carried out using 1-day-old broiler chickens (Mayer Hatchery, OH, USA). Feed and water were given ad libitum. Chickens (n = 6/group) were administered with the QSIs (QSI-1, QSI-2, QSI-5 − 8, QSI-10, ChemBridge, San Diego, CA); previously designated as C1, C2, C5, C6, C7, C8, C10 ([17]) using oral gavage. These compounds were selected based on their high efficacy in in vitro studies and the doses correspond to 30X of the initial in vitro screening concentration ([17]). The QSIs were suspended in dimethyl sulfoxide (DMSO; used as a vehicle) and administered once daily for 5 successive days (starting from day 4 to day 8). The first dose was administered 1 day before the challenge, followed by the second dose on the challenge day (2 h before challenge), followed by three additional doses on subsequent days. Feeders were removed 1 h prior to the treatment and replaced 1 h after the treatment. Chickens were challenged subcutaneously (s/c) on day 5 with Rif^R APEC O78 (1 × 10^7 CFU/bird) in PBS using syringe (27 gauge, 0.5 in.). The challenge dose, which […], was chosen based on preliminary experiments conducted with different infection routes (subcutaneous s/c, intra-tracheal and intra-airsacs) and different doses (10^6, 10^7, and 10^8 CFU/chicken). […] Therefore, we selected this challenge dose and route for evaluation of QSIs in chickens ([34]). The positive (PC; infected with APEC O78 and DMSO treated) and negative (NC; non-infected and non-treated) control groups were included.
Chickens were monitored for clinical signs for 8 DPI. Any chickens moribund during this period were humanely euthanized and necropsied to determine bacterial load in the internal organs (liver, heart, lung, and kidney). Internal organs were aseptically collected, weighed and suspended in 1× PBS, the amount of PBS added was adjusted based on the organ size to make a suspension, the organ size and amount of PBS added were included in the final calculation of the CFU. The samples were homogenized, serially diluted 10-fold, plated on MacConkey agar (Remel, CA, USA) containing 50 μg/mL rifampicin, and incubated at 37°C for 24 h to determine the CFU/g. Pathological lesions severity in internal organs (pericarditis, perihepatitis, airsacculitis, and lung congestion) was scored as described previously ([21], [59]). At 8 DPI, the remaining chickens were humanely euthanized and necropsied, lesions were scored, and the APEC load was quantified in internal organs as described above.

Cc1ccc(CN2CCN(CCCc3ccccc3)CC2)cc1 [QSI-5]
Average lesion severity, Lung (lesion score, PC 1.25): 0.17
Average lesion severity, Liver (lesion score, PC 1.75): 0.33
Average lesion severity, Airsac (lesion score, PC 2.00): 0.17
Average lesion severity, Heart (lesion score, PC 2.25): 0.33
Mortality rate % (Nr.) (n = 6/group, 8 DPI, PC 66.6 (4/6)): 0%
Average APEC load, Liver (PC 5.95): 0.72 Log CFU/g of tissue
Average APEC load, Heart (PC 5.98): 0.58 Log CFU/g of tissue
Average APEC load, Kidney (PC 6.81): 0.67 Log CFU/g of tissue
Average APEC load, Lung (PC 6.83): 0.75 Log CFU/g of tissue
